From patent US20020006915A1, “Use of COX-2 inhibitors to treat sepsis, complications thereof, and EP receptor modulation” (priority 2000, published 2002) come the findings set out here.

Assay [1] has as its system LPS stimulated human PBMC's. Description: PGE2, LTB4 and TNF-α production from LPS stimulated PBMC's co-incubated with NS-398. It counts as cell-based. As to the method:
The study included 10 patients sustaining either long-bone fracture or ≧15% total body surface burn and 10 control subjects (protocol approved by the Weill Medical College of Cornell University Internal Research Board). Blood samples were obtained within 12 hours of fracture or burn injury. Immune compromised patients including those with cancer, collagen-vascular diseases, HIV or any recent history of steroid or NSAID drug use were excluded from this study. Each patient sample was run simultaneously with a control sample.
Peripheral venous blood samples were collected into two heparin-EDTA tubes and placed on ice. 6 mL of Histopaque (Sigma Chemical Co., St. Louis, Mo.) was layered into a conical 15 mL tube and 6 mL of undiluted whole blood was gently layered over the top. Tubes were then centrifuged at 1000 rpm for 30 minutes at room temperature. A sterile pasteur pipet was used to gently collect the layer of PBMC's which were then transferred to a new 15 mL tube. Samples were washed twice with 10 mL Ca^+2 and Mg^+2-free Hanks Buffered Salt Solution (Gibco BRL-Life Technologies, Grand Island, N.Y.) and centrifuged at 1100 rpm for 10 minutes. The supernatant was discarded and the pellet resuspended in complete RPMI-1640 (Gibco BRL-Life Technologies, Grand Island, N.Y.) with 10% heat inactivated fetal bovine serum (Gibco BRL-Life Technologies, Grand Island, N.Y.) and 1% antibiotic/antimycotic solution. Cells were then adjusted to a final concentration of 1×10^6 cells/mL and plated. Cells were incubated at 37° C. in a 5% CO2 atmosphere with supernatants harvested at 24 hours and frozen at −70° C. for determination of prostaglandin and cytokine production.
Serial dilutions were made to co-culture cells with a final concentration of […] NS-398 in a 0.1% DMSO. Control and trauma groups were co-cultured with 0.1% DMSO vehicle for comparisons with NS-398 treated groups.

The subject of assay [2] is LPS stimulated splenic macrophages. Description: Mediator production (PGE2, IL-6, TNF-α, NO) by stimulated splenic macrophages 7 days after injury, 3 in vivo doses of NS-398 within 24 h. The arrangement: species or system BALB/c mice. As to the method:
Vehicle mice were injected with a 4% DMSO solution.
Spleens were collected aseptically and placed in separate petri dishes containing cold (4° C.) Hanks Balanced Salt Solution without calcium and magnesium (Gibco BRL, Life Technologies Inc, Grand Island, N.Y.). Splenocytes were isolated by gentle mechanical disruption of the spleen with filtration through a nylon mesh (Spectrum, Laguna Hills, Calif.). The suspension was centrifuged for 7 minutes, at 500 g and 4° C. After resuspension, erythrocytes were lysed with an ammonium chloride solution for 4 minutes and the lysate was centrifuged as previously described. The remaining pellet was resuspended in complete RPMI-1640 (Gibco BRL, Life Technologies Inc), containing 1% antibiotic/antimycotic solution and 10% heat-inactivated fetal bovine serum (Gibco BRL, Life Technologies Inc), counted and diluted to a final cell concentration of 5×10^6 cells/ml and plated. After allowing macrophages to adhere for 2 hours, the remaining cells were suctioned off and macrophages were incubated with 10 ng/ml LPS 055:B5 (Sigma, St. Louis, Mo.) for PGE2, IL-6 and TNFα determination, or (10 ng/ml LPS+100 U/ml recombinant mouse IFN-γ (Pharmingen, San Diego, Calif.) for NO2^− determination. Cells were incubated at 37° C. in a 5% CO2 atmosphere, and supernatants harvested at 24 hours and frozen at −70° C. for determination of prostaglandin, cytokine and NO production.
NO2^− was measured indirectly by determination of NO2^− concentration using the Greiss reagent system (Promega, Madison, Wis.). The BCA protein assay (Pierce, Rockford, Ill.) was used to quantify protein and all measurements were normalized to protein content per well.
Balb/c mice (n=8/group) were given 3 intraperitoneal injections of 10 mg/kg NS398; immediately following injury, at 12 and 24 hours after sham injury or trauma (femur fracture and 40% blood volume hemorrhage). Sham+placebo (C); sham+NS398 (CN); trauma+placebo (T); or trauma+NS398 (TN) groups were studied. On day 7 after injury, mice were sacrificed and splenic macrophages evaluated for cytokine production and expression of COX-2 mRNA. In a separate study, mice (n=10-12/group) were treated in an identical fashion. After 7 days, cecal ligation and puncture was performed and animals followed for survival.

The subject of another assay is COX-2. In kind it is cell-based, human.
[3] abbreviates: T + NS, 3 i.p. injections of 10 mg/kg, splenic macrophages day 7.

Protocol for COX-2: Isolated PBMC's from various groups were incubated for 18 hours at which time all groups were treated with 10 ng/mL lipopolysaccharaide (LPS) 055:B5 (Sigma, St. Louis, Mo.) for 6 hours RT-PCR samples were run in a blinded fashion. Extraction of mRNA was with an RNA extraction kit (Qiagen). Total mRNA (1 μg) was reverse transcribed in an RT mastermix (50 mM KCl, 10 mM tris-HCl, 5 mM MgCl2, 1 mM dNTP, 2.5 mM oligo d(T), 50 units of RT, 20 units of RNAse inhibitor, and nuclease free water; all reagents from Perkin-Elmer, Foster City, Calif.) with an initial 10 minute incubation at room temperature and then 42° C. for 10 minutes. […] The cDNA was run on a 1% agarose gel with 3 μL of ethidium bromide (10 mg/mL solution) and bands were visualized under UV transillumination and recorded in an image acquisition processing and analysis program (Eagle Eye 2, Stratagene).
NS-398 (N-[2-(cyclohexyloxy)-4-nitrophenyl]-methanesulfonamide) was obtained from Cayman Chemical (Ann Arbor, Mich.) and prepared in DMSO at a concentration of 1 mM. Serial dilutions were made to co-culture cells with a final concentration of 10 mM NS-398 in a 0.1% DMSO. […]
To further evaluate the expression of COX-2, samples of LPS stimulated PBMC's were evaluated from control and injured subjects as well as samples co-incubated with 10 μM NS-398.

With `CS(=O)(=O)Nc1ccc([N+](=O)[O-])cc1OC1CCCCC1` [NS-398, N-(2-cyclohexyloxy-4-nitrophenyl)methanesulfonamide], the TNF-α production entry in assay [1] (PBMC's after injury, co-culture with NS-398, P<0.05) is on record as “significantly decreased production”. Moreover, the PGE2 production result in assay [1] (PBMC's of injured patients, co-culture with 10μM NS-398, T vs TN P<0.001) is listed as “significantly reduced the production of PGE2”. The LTB4 production result in assay [1] (control cells, co-culture with NS-398, P<0.05) is reported as “significant increase in the production of LTB4”. Moreover, the LTB4 production result in assay [1] (trauma cells, co-culture with NS-398, P<0.004) was “significant increase in the production of LTB4”. In assay [2] (setting [3]), the IL-6 stood at 5.4 ± 0.9 pg/μg protein, the NO is reported as 8 ± 4 nmol/μgprot and the TNF-α is listed as 2.0 ± 0.5. Moreover, the PGE2 in assay [2] (T + NS, 3 i.p. injections of 10 mg/kg, splenic macrophages day 7, n=8) came out at 71 ± 14. This compound also showed a PGE2 production from LPS stimulated splenic macrophages in assay [2] (control mice treated with NS-398 (CN), 7 days) of 87 ± 10 pg/µg protein. Moreover, in assay [2] (injured mice + NS-398, 7 days), the “IL-6 level, splenic macrophages” value was determined as 5.4 ± 0.3 pg/µg and the “nitrite levels, LPS+IFN-γ stimulated splenic macrophages” value is 0.007 ± 0.004 nmol/µg. Besides, in assay [2] (trauma + NS-398 (TN), 7 days following trauma), the “TNF-α production, splenic macrophages” value was 2.0 ± 0.2 pg/µL. Also, the “PGE2 production from LPS stimulated splenic macrophages” value in assay [2] (trauma+NS-398 mice, 7 days following injury, treatment for 24 hours post-injury, ±SEM) came out at 71 ± 5 pg/µg. In addition, in the assay with COX-2, the COX-2 expression result was “reduced COX-2 expression to levels similar to that expressed by control cells”.
